Measured values as given in ChEMBL document CHEMBL4270492, “Free radicals and polyphenols: The redox chemistry of neurodegenerative diseases” (Eur J Med Chem, 2017).

Experiments:
[1] = Antioxidant activity assessed as alkoxyl radical scavenging activity by measuring rate constant by ESR spin trapping method; assay type: functional
[2] = Antioxidant activity assessed as hydroxyl radical scavenging activity by measuring rate constant using UV irradiation by ESR spin trapping method; assay type: functional
[3] = Antioxidant activity assessed as singlet oxygen scavenging activity by measuring rate constant using VIS irradiation by ESR spin trapping method; assay type: functional
[4] = Antioxidant activity assessed as superoxide anion free radical scavenging activity by measuring rate constant using UV irradiation by ESR spin trapping method; assay type: functional
[5] = Antioxidant activity assessed as effect on linolenic acid autooxidation in presence of DLPC liposomes; assay type: functional
[6] = Antioxidant activity assessed as effect on linolenic acid autooxidation in presence of 0.5 M SDS based micellar systems; assay type: functional
[7] = Antioxidant activity assessed as effect on linolenic acid autooxidation in presence of 0.015 M SDS based micellar systems; assay type: functional
[8] = Electrochemical behaviour of the compound assessed as peak potential using disposable screen-printed carbon electrodes; assay type: physicochemical
[9] = Antioxidant activity assessed as DPPH free radical scavenging activity; assay type: functional
[10] = Metal chelating activity assessed as equilibrium constant for formation of compound-Fe2+ complex formation
[11] = Metal chelating activity assessed as equilibrium constant for formation of compound-Al3+ complex formation
[12] = Metal chelating activity assessed as equilibrium constant for formation of compound-Cu2+ complex formation
[13] = Electrochemical behaviour of the compound assessed as peak potential; assay type: physicochemical

Row | SMILES | K [1] | K [2] | K [3] | K [4] | Ep [8] | EC50 [9] | also measured
1 | O=C(/C=C/c1ccc(O)c(O)c1)O[C@@H]1C[C@](O)(C(=O)O)C[C@@H](O)[C@H]1O | 111 ×10⁵ /M/s | 9.6 ×10⁹ /M/s | 38.6 ×10⁷ /M/s | 288 ×10³ /M/s | – | – | –
2 | Cc1c(C)c2c(c(C)c1O)CCC(C)(C(=O)O)O2 (centres undefined) | 48.3 ×10⁵ /M/s | 24.8 ×10⁹ /M/s | 6.22 ×10⁷ /M/s | 2.1 ×10³ /M/s | – | – | K [5]: 0.58 ×10⁴ /M/s; K [6]: 110000 M⁻¹ s⁻¹; K [7]: 1 ×10⁴ /M/s
3 | O=C(O)c1ccc(O)cc1 [PARABEN] | – | – | – | – | 870 mV | > 800 µmol | –
4 | Oc1nc(O)c2nc(O)[nH]c2n1 | 106 ×10⁵ /M/s | 9.52 ×10⁹ /M/s | 2.3 ×10⁷ /M/s | 10.6 ×10³ /M/s | – | – | –
5 | O=C(O)CC(O)(CC(=O)O)C(=O)O | – | – | – | – | – | – | K [10]: 1600 M⁻¹; K [11]: 1000 to 100000 M⁻¹; K [12]: 1000 to 100000 M⁻¹
6 | COc1cc(/C=C/C(=O)O)cc(OC)c1O [SINAPINATE] | – | – | – | – | – | 0.0724 µmol | Ep [13]: 188 to 295 mV
7 | COc1cc(C(=O)O)ccc1O [VANILLIC ACID] | – | – | – | – | 730 mV | 14.37 µmol | –
8 | O=C(O)/C=C/c1cccc(O)c1 | – | – | – | – | 780 mV | > 300 µmol | –
9 | O=C(O)c1cc(O)ccc1O [GENTISIC ACID] | – | – | – | – | – | 0.0292 µmol | –
10 | O=c1c(-c2ccc(O)cc2)coc2cc(O)cc(O)c12 | 20.7 ×10⁵ /M/s | 11.8 ×10⁹ /M/s | 19.1 ×10⁷ /M/s | 2.75 ×10³ /M/s | – | – | –
11 | Cc1cc(C(C)(C)C)c(O)c(C(C)(C)C)c1 | – | – | – | – | – | – | K [5]: 0.37 ×10⁴ /M/s; K [6]: 1.1 ×10⁴ /M/s; K [7]: 3.4 ×10⁴ /M/s
12 | COc1cc(/C=C/C(=O)O)ccc1O [FERULATE] | – | – | – | – | 447 mV | 0.0927 µmol | Ep [13]: 335 mV
13 | O=C(O)/C=C/c1cc(O)c(O)c(O)c1 | – | – | – | – | – | – | Ep [13]: 384 mV
14 | O=C(O)/C=C/c1ccc(O)c(O)c1 [CAFFEIC ACID] | 75.9 ×10⁵ /M/s | 8.06 ×10⁹ /M/s | 54.7 ×10⁷ /M/s | 10.6 ×10³ /M/s | 450 mV | 0.0478 µmol | Ep [13]: 183 mV
15 | O=C(O)c1ccc(O)c(O)c1 [PROTOCATECHUIC ACID] | – | – | – | – | 410 mV | 0.0574 µmol | Ep [13]: 188 to 317 mV
16 | COc1cc(C(=O)O)cc(OC)c1O [SYRINGIC ACID] | – | – | – | – | 490 mV | 0.0427 µmol | –
17 | O=C(O)c1ccccc1O [SALICYLIC ACID] | – | – | – | – | 940 mV | > 800 µmol | –
18 | C[C@@H]1O[C@@H](OC[C@H]2O[C@@H](Oc3c(-c4ccc(O)c(O)c4)oc4cc(O)cc(O)c4c3=O)[C@H](O)[C@@H](O)[C@@H]2O)[C@H](O)[C@H](O)[C@H]1O | 69 ×10⁵ /M/s | 6.38 ×10⁹ /M/s | 34.8 ×10⁷ /M/s | 15.4 ×10³ /M/s | – | – | –
19 | N[C@@H](CCC(=O)N[C@@H](CS)C(=O)NCC(=O)O)C(=O)O | 27.6 ×10⁵ /M/s | 16.4 ×10⁹ /M/s | 93.9 ×10⁷ /M/s | 1.11 ×10³ /M/s | – | – | –
20 | O=C(O)/C=C/c1ccc(O)cc1 [COUMARIC ACID] | – | – | – | – | 670 mV | 66.29 µmol | Ep [13]: 736 mV
21 | O=C(O)/C=C/c1ccccc1O [O-COUMARIC ACID] | – | – | – | – | 750 mV | 130.05 µmol | –
22 | O=C(O)c1cc(O)c(O)c(O)c1 [GALLIC ACID] | – | – | – | – | – | 0.0237 µmol | Ep [13]: 110 to 544 mV
23 | CC(=O)N[C@@H](CS)C(=O)O | 19.3 ×10⁵ /M/s | 13.6 ×10⁹ /M/s | 20.5 ×10⁷ /M/s | 0.5 ×10³ /M/s | – | – | –
24 | COc1cc(C(C)(C)C)c(O)c(C(C)(C)C)c1 | – | – | – | – | – | – | K [5]: 2.75 ×10⁴ /M/s; K [6]: 1 ×10⁴ /M/s; K [7]: 2.5 ×10⁴ /M/s
